Data published in ChEMBL document CHEMBL2086352, “Thiazoline peptides and a tris-phenethyl urea from Didemnum molle with anti-HIV activity” (J Nat Prod, 2012).
pIC50: −log10 of the molar value. The source made the active and inactive calls. The rule behind the calls is not given here. Starred links: 1 amine or outer side, 2 acyl side, 3 side chain; linkers in the order of their positions; H or OH if unused. Non-standard residues stand in square brackets, D forms with d. Residues, ends and D or L forms follow the SMILES beside them. *: point of attachment. X1 = O=C([C@H]1CSC([C@@H](Cc2ccccc2)N[*:1])=N1)[*:2]; Allyl(1,1-Me2) = C=CC(C)(C)*

Tests used:
[1] = tested on: Human immunodeficiency virus; test: Antiviral activity against HIV infected in 1A2 cells assessed as cytoprotective activity after 96 hrs by MTT assay; format: functional, organism-based; details: Human immunodeficiency virus 1, 1A2, 96 h
[2] = target: Human immunodeficiency virus type 1 integrase (Human immunodeficiency virus 1, UniProt Q7ZJM1); test: Inhibition of HIV-1 integrase by colorimetry
Chain of Human immunodeficiency virus type 1 integrase (Q7ZJM1 whole entry): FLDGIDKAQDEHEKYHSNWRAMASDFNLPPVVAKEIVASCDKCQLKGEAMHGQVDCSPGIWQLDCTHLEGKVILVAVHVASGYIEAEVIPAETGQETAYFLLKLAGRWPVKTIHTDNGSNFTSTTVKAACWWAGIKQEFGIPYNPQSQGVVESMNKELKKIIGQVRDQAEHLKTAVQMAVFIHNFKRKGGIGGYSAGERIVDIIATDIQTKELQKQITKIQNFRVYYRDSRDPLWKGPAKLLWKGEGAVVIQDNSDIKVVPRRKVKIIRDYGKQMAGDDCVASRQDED

[3] = target: Human immunodeficiency virus type 1 integrase (Human immunodeficiency virus 1) (UniProt Q7ZJM1); test: Inhibition of HIV-1 integrase at 100 ug/ml by colorimetry
Chain of Human immunodeficiency virus type 1 integrase (Human immunodeficiency virus 1) (Q7ZJM1 as listed by the source): as the sequence (Q7ZJM1 whole entry) above

[4] = tested on: Human immunodeficiency virus; test: Antiviral activity against HIV infected in 1A2 cells assessed as cytoprotective activity at 78 uM after 96 hrs by MTT assay; format: functional, organism-based

Molecule `CC[C@H](C)[C@@H]1NC(=O)[C@H]2CSC(=N2)[C@@H](Cc2ccccc2)NC(=O)[C@@H]2CCCN2C(=O)[C@@H]2CCCN2C(=O)[C@H](C(C)C)NC1=O` [MOLLAMIDE F] (cyclo(IVPP[X1])) has a pIC50 [1] of 4.11 and a pIC50 [2] of 4.41.

`O=C(NCCc1ccccc1)NCCc1ccccc1C(=O)NCCc1ccccc1` [MOLLEUREA A] was tested, and the pIC50 [1] was 4.22 and the inhibition [3] was “inactive”.

For `[N-]=[N+]=[N-]` [SODIUM AZIDE], the pIC50 [2] was 1.34.

`C=CC(C)(C)O[C@H](C)[C@@H]1NC(=O)[C@H]2CSC(=N2)[C@@H](Cc2ccccc2)NC(=O)[C@@H]2CCCN2C(=O)[C@H](CO)NC(=O)[C@H](CC(C)C)NC1=O` (cyclo(LSP[X1]T(Allyl(1,1-Me2)))) was tested, and the Activity [4] was “inactive” and the inhibition [3] was “inactive”.
